Laboratory results published in US12479841B2, “Anthelmintic compounds comprising azaindoles structure” (Intervet Inc., priority 2019, dated 2025).

Tests used:
[1] = target: human Maxi K channel (BK channel), KCNMA1 (KCa1.1) and beta1 (KCNMB1) subunits (Homo sapiens, UniProt Q12791)
Procedure: In Vitro Assay: Agonistic Activity at the Human Maxi K Channel (BK Channel)
A CHO K1 cell line was stably transfected with the KCNMA1 (KCa1.1, U11058) and beta1 (KCNMB1) subunits of the human Maxi K channel (Ponte et al, Molecular Pharmacology 2012, 81(4), 567-577).
Cells were seeded in microtiter plates (black 384-well MTP, clear bottom) in a concentration of 10,000 cells/well in 25 μl medium and cultured for 20 to 24 hours at 37° C. and 5% CO2. The cell medium was removed, and the cells washed with Tyrode's solution. 25 μl of FMP-dye Blue-Tyrode's was added to each well and incubated at room temperature for 30 min.
(§1) For the membrane potential measurements, the prepared cell plate and substance plate were placed in the FLIPR Tetra (Molecular Devices). The baseline measurement of the fluorescence was stared for 20 sec (Exc. 510-545 nm, Emm. 565-625 nm). The cells were depolarized by addition of 25 μl of the diluted test compounds (final assay concentration of the KCl-Tyrode: 70 mM KCl, 2 mM CaCl2, 1 mM MgCl2, 0.8 mM NaH2PO4, 5 mM Glucose, 28 mM Hepes, pH 7.4, including the voltage sensitive dye). The complete measurement takes 150 s.
(§2) EC50 values were determined in triplicate utilizing compound dilution series. The data were determined at least in two independent tests. The data were proceeded by using the ActivityBase XE Runner software (IDBS) for curve fitting and calculation of the half-maximal effective concentration.

[2] = system: Oesophagostomum dentatum (nodular worm of swine), larval stage 3; test: In vitro assay: Oesophagostomum dentatum L3 larvae, minimum effective concentration; conditions: in Sus scrofa, read-out: MEC (minimum effective concentration) against Oesophagostomum dentatum L3, L3 larvae, 20 per well, microscopic examination, concentration at which at least one larva shows mortality, change in motility or development
Source text: (§3) In Vitro Assay: Ascaridia galli and Oesophagostomum dentatum
(§4) Ascaridia galli (intestinal roundworm of chicken), larval stage 3 (“L3”); and Oesophagostomum dentatum (nodular worm of swine), larval stages 3 and 4 (respectively “L3” and “L4”) where suspended in a nutrient medium and distributed to 96 well plates with 20 larvae per well. The wells were spiked with DMSO solutions of the compounds with declining concentration.

[3] = target: Caenorhabditis elegans slo-1a (Caenorhabditis elegans, UniProt Q95V25)
Procedure: In Vitro Assay: Agonistic Activity at C. elegans Slo-1a
A CHO K1 cell line stably transfected with the Caenorhabditis elegans slo-1a (accession no Y51A2D.19a) was established. Cells were seeded in microtiter plates (black 384-well MTP, clear bottom) in a concentration of 10,000 cells/well in 25 μl medium and cultured for 20 to 24 hours at 37° C. and 5% CO2. The cell medium was removed, and the cells washed with Tyrode's solution. 25 μl of FMP-dye Blue-Tyrode's was added to each well and incubated at room temperature for 30 min.
as §1, §2

[4] = system: A. viteae microfilaria; test: In vitro assay: Acanthocheilonema viteae L1 (microfilaria) motility; conditions: 72 h, read-out: EC50 value, Acanthocheilonema viteae L1, approximately 500 microfilaria, 3 days incubation, reduction in motility vs DMSO, duplicates
Procedure: In Vitro Assay: Acanthocheilonema viteae L1
Approximately 500 A. viteae microfilaria were added to a microtiter plate containing a nutrient medium and the test compound in DMSO at varying concentrations. After incubation for 3 days, activity was evaluated as reduction in motility as compared to DMSO as negative control. Compounds were tested in duplicates. Based on the concentration response curves EC50 values were calculated.

[5] = system: Oesophagostomum dentatum (nodular worm of swine), larval stage 4; test: In vitro assay: Oesophagostomum dentatum L4 larvae, minimum effective concentration; conditions: in Sus scrofa, read-out: MEC (minimum effective concentration) against Oesophagostomum dentatum L4, L4 larvae, 20 per well, microscopic examination, concentration at which at least one larva shows mortality, change in motility or development
Source text: as §3, §4

[6] = system: larvae L4 of D. immitis; test: In vitro assay: Dirofilaria immitis L4 motility; type: cell-based; conditions: 72 h, read-out: EC50 value, Dirofilaria immitis L4, 10 L4 larvae, 3 days incubation, reduction in motility vs DMSO, duplicates

Sequence of human Maxi K channel (BK channel), KCNMA1 (KCa1.1) and beta1 (KCNMB1) subunits (Q12791 1-1178 isoform Q12791-5): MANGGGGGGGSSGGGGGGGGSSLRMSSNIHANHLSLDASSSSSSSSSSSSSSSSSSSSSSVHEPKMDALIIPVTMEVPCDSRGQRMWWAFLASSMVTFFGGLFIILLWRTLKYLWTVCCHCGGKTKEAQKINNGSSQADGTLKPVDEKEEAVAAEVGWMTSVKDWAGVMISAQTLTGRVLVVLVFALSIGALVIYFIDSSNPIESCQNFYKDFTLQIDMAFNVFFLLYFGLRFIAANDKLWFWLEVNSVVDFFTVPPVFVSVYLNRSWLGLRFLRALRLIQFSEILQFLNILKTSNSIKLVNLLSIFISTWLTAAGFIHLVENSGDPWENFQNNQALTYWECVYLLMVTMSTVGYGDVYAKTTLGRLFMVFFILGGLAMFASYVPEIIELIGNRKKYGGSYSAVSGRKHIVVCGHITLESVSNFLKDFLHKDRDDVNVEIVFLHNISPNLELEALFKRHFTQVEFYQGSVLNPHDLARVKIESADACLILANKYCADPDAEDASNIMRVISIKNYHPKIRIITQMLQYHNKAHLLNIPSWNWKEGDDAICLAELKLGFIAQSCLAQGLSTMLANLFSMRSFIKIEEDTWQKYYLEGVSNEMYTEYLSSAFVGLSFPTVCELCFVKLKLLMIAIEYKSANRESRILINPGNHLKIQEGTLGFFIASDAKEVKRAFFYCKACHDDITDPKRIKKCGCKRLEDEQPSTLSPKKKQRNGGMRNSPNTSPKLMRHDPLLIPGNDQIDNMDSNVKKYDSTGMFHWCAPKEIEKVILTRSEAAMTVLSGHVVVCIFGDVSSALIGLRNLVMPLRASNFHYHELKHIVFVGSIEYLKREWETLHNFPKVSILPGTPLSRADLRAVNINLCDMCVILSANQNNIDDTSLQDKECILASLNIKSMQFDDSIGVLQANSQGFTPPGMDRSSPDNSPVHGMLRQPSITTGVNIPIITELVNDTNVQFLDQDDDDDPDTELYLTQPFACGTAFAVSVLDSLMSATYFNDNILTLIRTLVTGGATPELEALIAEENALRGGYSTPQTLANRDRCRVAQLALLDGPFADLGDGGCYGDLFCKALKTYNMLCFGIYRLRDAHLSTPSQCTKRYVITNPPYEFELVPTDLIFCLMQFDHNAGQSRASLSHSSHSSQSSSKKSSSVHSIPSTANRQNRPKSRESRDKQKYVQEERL
Sequence of human Maxi K channel (BK channel), KCNMA1 (KCa1.1) and beta1 (KCNMB1) subunits (Q16558 whole entry partner): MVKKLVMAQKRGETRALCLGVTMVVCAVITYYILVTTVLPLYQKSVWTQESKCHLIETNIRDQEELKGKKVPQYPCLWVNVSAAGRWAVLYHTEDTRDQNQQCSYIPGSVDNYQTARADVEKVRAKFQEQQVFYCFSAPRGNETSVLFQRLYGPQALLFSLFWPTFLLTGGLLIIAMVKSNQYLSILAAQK
Sequence of Caenorhabditis elegans slo-1a (Q95V25 whole entry): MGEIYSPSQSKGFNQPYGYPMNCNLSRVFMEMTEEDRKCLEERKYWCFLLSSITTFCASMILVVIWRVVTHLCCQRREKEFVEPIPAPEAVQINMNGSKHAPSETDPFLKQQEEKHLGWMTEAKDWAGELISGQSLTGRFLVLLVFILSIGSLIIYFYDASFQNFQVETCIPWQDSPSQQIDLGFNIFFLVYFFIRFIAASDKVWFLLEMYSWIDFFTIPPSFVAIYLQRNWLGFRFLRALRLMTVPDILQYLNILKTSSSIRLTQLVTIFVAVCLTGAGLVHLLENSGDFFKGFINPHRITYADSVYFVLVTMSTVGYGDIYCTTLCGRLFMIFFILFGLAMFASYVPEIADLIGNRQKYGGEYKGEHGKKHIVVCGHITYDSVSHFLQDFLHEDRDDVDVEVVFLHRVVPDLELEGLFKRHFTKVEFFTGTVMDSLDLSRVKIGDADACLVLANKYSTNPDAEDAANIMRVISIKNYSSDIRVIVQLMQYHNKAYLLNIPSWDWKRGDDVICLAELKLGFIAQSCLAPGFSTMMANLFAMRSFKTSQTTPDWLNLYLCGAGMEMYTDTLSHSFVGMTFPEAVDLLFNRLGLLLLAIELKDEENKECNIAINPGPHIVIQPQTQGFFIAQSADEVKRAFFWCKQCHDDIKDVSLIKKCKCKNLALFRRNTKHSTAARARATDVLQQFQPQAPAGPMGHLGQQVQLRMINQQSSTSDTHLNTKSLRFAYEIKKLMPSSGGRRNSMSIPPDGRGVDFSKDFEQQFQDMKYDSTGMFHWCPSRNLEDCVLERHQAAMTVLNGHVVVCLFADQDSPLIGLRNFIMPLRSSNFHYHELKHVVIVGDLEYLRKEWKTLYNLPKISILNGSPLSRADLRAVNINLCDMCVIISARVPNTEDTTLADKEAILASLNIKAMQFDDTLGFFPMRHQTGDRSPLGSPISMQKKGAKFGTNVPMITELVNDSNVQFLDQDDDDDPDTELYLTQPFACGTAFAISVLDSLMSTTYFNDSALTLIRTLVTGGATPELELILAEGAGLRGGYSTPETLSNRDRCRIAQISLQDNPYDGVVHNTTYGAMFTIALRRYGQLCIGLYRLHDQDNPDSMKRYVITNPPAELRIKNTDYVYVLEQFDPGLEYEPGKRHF

Row | SMILES | EC50 [1] | EC50 [3] | further results
1 | O=C(Nc1cccc2ccccc12)c1cnc2c(ccn2-c2cc(Cl)cc(Cl)c2)c1N1CCOCC1 [Compound 42] | > 30 µM |  | 
2 | CCOc1c(C(=O)N[C@H]2CCCc3ccccc32)cnc2c1ccn2-c1cc(Cl)cc(Cl)c1 [Compound 45] | > 30 µM |  | 
3 | COc1c(C(=O)N[C@H]2CCOc3ccccc32)cnc2c1ccn2-c1cc(Cl)cc(Cl)c1 [Compound 47] | > 30 µM |  | 
4 | CN(C)c1c(C(=O)NCc2ccccc2)cnc2c1ccn2-c1cc(Cl)cc(Cl)c1 [Compound 9] | > 30 µM |  | 
5 | CN(C)c1c(C(=O)NC2CCOc3ccccc32)cnc2c1ccn2-c1cc(Cl)cc(Cl)c1 (centres unmarked) [Compound 5] | > 30 µM | < 1 µM | minimal effective concentration [2]: ≤ 50 µM
6 | CN(C)c1c(C(=O)Nc2cccc3ccccc23)cnc2c1ccn2-c1cccc(Cl)c1Cl [Compound 20] | > 30 µM |  | minimal effective concentration [2]: ≤ 50 µM; EC50 [4]: < 10 µM
7 | O=C(N[C@H]1CCOc2ccccc21)c1cnc2c(ccn2-c2cccc(Cl)c2Cl)c1N1CCOCC1 [Compound 21] | > 30 µM | < 1 µM | 
8 | COc1cccc(-n2ccc3c(N(C)C)c(C(=O)N[C@H]4CCOc5ccccc54)cnc32)c1 [Compound 31] | > 30 µM | < 1 µM | 
9 | O=C(N[C@H]1CCOc2ccccc21)c1cnc2c(ccn2-c2cc(Cl)cc(Cl)c2)c1N1CCOCC1 [Compound 33] | > 30 µM |  | 
10 | CN(C)c1c(C(=O)N[C@H]2CCOc3ccccc32)cnc2c1ccn2-c1cccc(Cl)c1Cl [Compound 13] | > 30 µM | < 1 µM | 
11 | CN(C)c1c(C(=O)N[C@H]2CCc3ccccc32)cnc2c1ccn2-c1cccc(Cl)c1Cl [Compound 16] | > 30 µM | < 1 µM | 
12 | CN(C)c1c(C(=O)N[C@@H]2CCOc3ccccc32)cnc2c1ccn2-c1cccc(Cl)c1Cl [Compound 18] | > 30 µM | < 10 µM | minimal effective concentration [5]: ≤ 50 µM; EC50 [4]: < 10 µM
13 | CN(C)c1c(C(=O)NC2CC(C)(C)Oc3ccccc32)cnc2c1ccn2-c1cccc(Cl)c1Cl (centres unmarked) [Compound 19] | > 30 µM | < 10 µM | 
14 | O=C(Nc1cccc2ccccc12)c1cnc2c(ccn2-c2cccc(Cl)c2Cl)c1N1CCOCC1 [Compound 23] | > 30 µM |  | minimal effective concentration [2]: ≤ 50 µM; minimal effective concentration [5]: ≤ 50 µM
15 | COc1c(C(=O)N[C@H]2CCCc3ccccc32)cnc2c1ccn2-c1cc(Cl)cc(Cl)c1 [Compound 48] | > 30 µM |  | minimal effective concentration [2]: ≤ 50 µM; EC50 [4]: < 10 µM
16 | O=C(N[C@H]1CCc2ccccc21)c1cnc2c(ccn2-c2cccc(Cl)c2Cl)c1N1CCOCC1 [Compound 22] | > 30 µM |  | 
17 | CC1(C)CC(NC(=O)c2cnc3c(ccn3-c3cccc(Cl)c3Cl)c2N2CCOCC2)c2ccccc2O1 (centres unmarked) [Compound 40] | > 30 µM | < 10 µM | minimal effective concentration [2]: ≤ 50 µM; EC50 [4]: < 10 µM
18 | CN(C)c1c(C(=O)NC2CCc3ccccc32)cnc2c1ccn2-c1cccc(Cl)c1Cl (centres unmarked) [Compound 2] | > 30 µM | < 1 µM | 
19 | CN(C)c1c(C(=O)NC2CCc3ccccc32)cnc2c1ccn2-c1cc(Cl)cc(Cl)c1 (centres unmarked) [Compound 1, 1-(3,5-dichlorophenyl)-N-(2,3-dihydro-1H-inden-1-yl)-4-(dimethylamino)-1H-pyrrolo[2,3-b]pyridine-5-carboxamide] | > 30 µM | < 1 µM | 
20 | O=C(N[C@H]1CCCc2ccccc21)c1cnc2c(ccn2-c2cccc(Cl)c2Cl)c1N1CCOCC1 [Compound 17] | 10 to 30 µM | < 1 µM | 
21 | O=C(NC1CCOc2ccccc21)c1cnc2c(ccn2-c2cc(Cl)cc(Cl)c2)c1N1CCOCC1 (centres unmarked) [Compound 7] | > 30 µM |  | 
22 | O=C(NCc1ccccc1)c1cnc2c(ccn2-c2cccc(Cl)c2Cl)c1N1CCOCC1 [Compound 12] | > 30 µM |  | 
23 | O=C(NC1CCOc2ccccc21)c1cnc2c(ccn2-c2cccc(Cl)c2Cl)c1N1CCOCC1 (centres unmarked) [Compound 8] | > 30 µM | < 1 µM | EC50 [6]: < 1 µM
